Experiments:
human HIF-PHD2 = molecular target: T1, human HIF-PHD2 (Homo sapiens, UniProt Q9GZT9); test: HIF-PHD inhibition assay (fluorescence polarization), human HIF-PHD2; type: biochemical; settings: 2-oxoglutaric acid 3.33 μmol/L
T1 construct: purchased CrystalGenomics Ltd
Procedure, shortened: (§1)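 Compounds tested for enzyme inhibition by fluorescence polarization. Subtracting the reading taken before enzyme addition from the post-addition reading gave activity in mP.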

human HIF-PHD3 = molecular target: T2, human HIF-PHD3 (Homo sapiens, UniProt Q9H6Z9); test: HIF-PHD inhibition assay (fluorescence polarization), human HIF-PHD3; type: biochemical; settings: 2-oxoglutaric acid 166 μmol/L
T2 construct: purchased CrystalGenomics Ltd
T2 sequence (Q9H6Z9 whole entry): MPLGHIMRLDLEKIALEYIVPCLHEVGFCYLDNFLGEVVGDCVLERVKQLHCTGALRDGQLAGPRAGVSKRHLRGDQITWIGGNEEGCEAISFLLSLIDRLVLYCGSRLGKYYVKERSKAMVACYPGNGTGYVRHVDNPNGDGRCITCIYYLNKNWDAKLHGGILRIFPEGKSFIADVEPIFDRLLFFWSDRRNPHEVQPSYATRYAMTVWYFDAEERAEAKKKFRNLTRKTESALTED
Procedure, shortened: as §1

Hep3B cells = test: EPO production assay (ELISA of culture supernatant); type: cell-based; settings: Homo sapiens, 3 μmol/L test compound, 48 hours, relative to control (0.1% DMSO), read-out: EPO production stimulation rate with 3 μmol/L test compound
Method: The stimulatory effect of the compound onEPO production was determined as follows using Hep3B cells.
Cells were seeded on 96 well plates at 40000 cells/well, and the plate was incubated overnight in MEM medium containing 10% fetal bovine serum (FBS) at 37° C. under 5% CO2. The next day, the medium was replaced with MEM containing 0.5% FBS, followed by addition of test compound. The test compound was dissolved in dimethyl sulfoxide and added to the cell so that the final concentration of dimethyl sulfoxide was 0.1%. After incubation for additional 48 hours, the culture supernatant was collected, and EPO contained in the supernatant was determined using ELISA kit (EPO ELISA Kit 11-693-417-001, Roche Co.). The results were expressed as stimulation rate of EPO production (fold), which was calculated as the relative value of the EPO production with 3 μmol/L of the test compound compared to the EPO production without stimulation (control).
Stimulation rate of EPO production (fold)=(EPO production with addition of test compound)/(EPO production of control)

T1 sequence (Q9GZT9 2-426 limits assumed): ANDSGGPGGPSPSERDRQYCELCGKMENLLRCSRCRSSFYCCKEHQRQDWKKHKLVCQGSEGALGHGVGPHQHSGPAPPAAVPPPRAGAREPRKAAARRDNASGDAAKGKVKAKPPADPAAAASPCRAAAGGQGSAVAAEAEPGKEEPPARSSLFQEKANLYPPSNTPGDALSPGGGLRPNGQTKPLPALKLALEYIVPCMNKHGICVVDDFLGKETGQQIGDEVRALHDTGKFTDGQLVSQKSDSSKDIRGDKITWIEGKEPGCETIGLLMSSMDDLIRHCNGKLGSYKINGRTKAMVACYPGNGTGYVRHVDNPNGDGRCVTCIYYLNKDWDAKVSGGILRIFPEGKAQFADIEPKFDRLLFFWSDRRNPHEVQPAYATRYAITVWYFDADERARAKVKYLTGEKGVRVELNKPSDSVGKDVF

| SMILES | IC50 (human HIF-PHD2) [nM] | IC50 (human HIF-PHD3) [nM] | fold induction at 3 µM (Hep3B cells) |
| --- | --- | --- | --- |
| O=C(O)c1cnn(-c2nc(O)c3c(cnn3Cc3ccc(F)c(Br)c3)n2)c1 [Example 14] | 31 | 280 | 1.4 |
| O=C(O)c1cnn(-c2nc(O)c3c(cnn3Cc3cc(F)cc(Br)c3)n2)c1 [Example 15] | 52 | 290 | 1.7 |
| Cc1ccc(C(C(C)C)n2ncc3nc(-n4cc(C(=O)O)cn4)nc(O)c32)cc1 (stereo not drawn) [Example 25] | 70 | 2900 | 2.9 |
| O=C(O)c1cnn(-c2nc(O)c3c(cnn3C(c3ccc(Cl)cc3)c3ccc(Cl)cc3)n2)c1 [Example 27] | 20 | 2600 | 26 |
| O=C(O)c1cnn(-c2nc(O)c3c(cnn3Cc3ccc4cc(F)ccc4c3)n2)c1 [Example 32] | 14 | 320 | 5.7 |
| O=C(O)c1cnn(-c2nc(O)c3c(cnn3Cc3ccc4c(c3)CCCC4)n2)c1 [Example 36] | 15 | 170 | 1.4 |
| O=C(O)c1cnn(-c2nc(O)c3c(cnn3Cc3ccc(C4CCCCC4)cc3)n2)c1 [Example 37] | 26 | 120 | 8.3 |
| O=C(O)c1cnn(-c2nc(O)c3c(cnn3Cc3ccccc3-c3ccccc3)n2)c1 [Example 38] | 150 | 1800 | 2.9 |
| O=C(O)c1cnn(-c2nc(O)c3c(cnn3Cc3cccc(-c4ccccc4)c3)n2)c1 [Example 39] | 25 | 350 | 5 |
| O=C(O)c1cnn(-c2nc(O)c3c(cnn3Cc3cccc(-c4ccc(F)cc4)c3)n2)c1 [Example 40] | 11 | 140 | 5 |
| O=C(O)c1cnn(-c2nc(O)c3c(cnn3Cc3cccc(-c4ccc(C(F)(F)F)cc4)c3)n2)c1 [Example 41] | 22 | 340 | 9.5 |
| COc1ccc(-c2cccc(Cn3ncc4nc(-n5cc(C(=O)O)cn5)nc(O)c43)c2)cc1 [Example 42] | 14 | 1400 | 9.1 |
| O=C(O)c1cnn(-c2nc(O)c3c(cnn3Cc3cccc(-c4ccc(OC(F)(F)F)cc4)c3)n2)c1 [Example 43] | 15 | 200 | 6.5 |
| O=C(O)c1cnn(-c2nc(O)c3c(cnn3Cc3cccc(-c4cccc(F)c4)c3)n2)c1 [Example 44] | 49 | 390 | 4.9 |
| O=C(O)c1cnn(-c2nc(O)c3c(cnn3Cc3cccc(-c4cccc(C(F)(F)F)c4)c3)n2)c1 [Example 45] | 50 | 170 | 8.9 |
| O=C(O)c1cnn(-c2nc(O)c3c(cnn3Cc3cccc(-c4ccccc4F)c3)n2)c1 [Example 46] | 68 | 85 | 3.7 |
| O=C(O)c1cnn(-c2nc(O)c3c(cnn3Cc3cccc(-c4ccccc4C(F)(F)F)c3)n2)c1 [Example 47] | 77 | 650 | 4.4 |
| Cc1cccc(C)c1-c1cccc(Cn2ncc3nc(-n4cc(C(=O)O)cn4)nc(O)c32)c1 [Example 48] | 70 | 340 | 6.6 |
| O=C(O)c1cnn(-c2nc(O)c3c(cnn3Cc3cc(-c4ccccc4)ccc3F)n2)c1 [Example 49] | 30 | 200 | 7.6 |
| O=C(O)c1cnn(-c2nc(O)c3c(cnn3Cc3cc(F)cc(-c4ccccc4)c3)n2)c1 [Example 50] | 51 | 320 | 6.3 |
| O=C(O)c1cnn(-c2nc(O)c3c(cnn3Cc3ccc(F)c(-c4ccccc4)c3)n2)c1 [Example 51] | 34 | 190 | 3.9 |
| O=C(O)c1cnn(-c2nc(O)c3c(cnn3Cc3cccc(-c4ccccc4)c3F)n2)c1 [Example 52] | 22 | 250 | 3.3 |
| Cc1ccc(Cn2ncc3nc(-n4cc(C(=O)O)cn4)nc(O)c32)cc1-c1ccccc1 [Example 53] | 25 | 410 | 3.3 |
| O=C(O)c1cnn(-c2nc(O)c3c(cnn3Cc3ccc(-c4ccccc4F)cc3)n2)c1 [Example 56] | 16 | 260 | 19 |
| Cc1ccccc1-c1ccc(Cn2ncc3nc(-n4cc(C(=O)O)cn4)nc(O)c32)cc1 [Example 57] | 15 | 130 | 9.1 |
| CCc1ccccc1-c1ccc(Cn2ncc3nc(-n4cc(C(=O)O)cn4)nc(O)c32)cc1 [Example 58] | 21 | 65 | 9.3 |
| O=C(O)c1cnn(-c2nc(O)c3c(cnn3Cc3ccc(-c4ccccc4C(F)(F)F)cc3)n2)c1 [Example 61] | 12 | 180 | 6 |

Further lines, with some results ahead:

| IC50 (human HIF-PHD2) [nM] | IC50 (human HIF-PHD3) [nM] | SMILES | fold induction at 3 µM (Hep3B cells) |
| --- | --- | --- | --- |
| 66 | 820 | C[C@H](c1ccccc1)n1ncc2nc(-n3cc(C(=O)O)cn3)nc(O)c21 [Example 16] | 3.1 |
| 65 | 480 | C[C@@H](c1ccccc1)n1ncc2nc(-n3cc(C(=O)O)cn3)nc(O)c21 [Example 17] | 3.2 |
| 35 | 450 | C[C@@H](c1ccc(F)cc1)n1ncc2nc(-n3cc(C(=O)O)cn3)nc(O)c21 [Example 18] | 5.6 |
| 26 | 720 | C[C@@H](c1ccc(C(F)(F)F)cc1)n1ncc2nc(-n3cc(C(=O)O)cn3)nc(O)c21 [Example 19] | 10 |
| 65 | 1200 | C[C@H](c1ccc(Cl)cc1)n1ncc2nc(-n3cc(C(=O)O)cn3)nc(O)c21 [Example 20] | 5.5 |
| 17 | 520 | C[C@@H](c1ccc(Cl)cc1)n1ncc2nc(-n3cc(C(=O)O)cn3)nc(O)c21 [Example 21] | 7.5 |
| 44 | 990 | CC[C@@H](c1ccccc1)n1ncc2nc(-n3cc(C(=O)O)cn3)nc(O)c21 [Example 24] | 2.8 |
| 37 | 200 | O=C(O)c1cnn(-c2nc(O)c3c(cnn3Cc3ccc4ccccc4c3)n2)c1 [Example 29] | 4.2 |
| 72 | 460 | C[C@H](c1ccc2ccccc2c1)n1ncc2nc(-n3cc(C(=O)O)cn3)nc(O)c21 [Example 30] | 5.5 |
| 13 | 270 | C[C@@H](c1ccc2ccccc2c1)n1ncc2nc(-n3cc(C(=O)O)cn3)nc(O)c21 [Example 31] | 4.7 |
| 17 | 240 | O=C(O)c1cnn(-c2nc(O)c3c(cnn3Cc3ccc4ccccc4c3F)n2)c1 [Example 34] | 1.2 |
| 18 | 250 | Cc1c(Cn2ncc3nc(-n4cc(C(=O)O)cn4)nc(O)c32)ccc2ccccc12 [Example 35] | 5.7 |
| 18 | 250 | C[C@@H](c1cccc(-c2ccccc2)c1)n1ncc2nc(-n3cc(C(=O)O)cn3)nc(O)c21 [Example 54] | 5.6 |

From US20150239889A1, “PYRAZOLOPYRIMIDINE COMPOUND” (MITSUBISHI TANABE PHARMA CORPORATION, priority 2012, published 2015)
